Tests used:
CLK2 kinase = CLK2 kinase (Homo sapiens, UniProt P49760); test: CLK2 kinase activity assay (Z-lyte FRET); assay type: biochemical; settings: Z-lyte Ser/Thr 6 peptide, 60 μM ATP, 1 h at room temperature;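 also: FRET read-out as coumarin to fluorescein emission ratio, unphosphorylated peptide as 0% and phosphorylated peptide as 100% controls, duplicate reactions, non-linear regression fit of dose-response curves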
[1] = tested on: primary human mesenchymal stem cells (hMSCs); test: Chondrogenesis screening using primary human mesenchymal stem cells; assay type: cell-based; settings: Homo sapiens, Mesenchymal stem cells, hMSC chondrogenesis; for Emax: maximum activity relative to TGF-β3 (10 ng/mL) positive control, read-out: Max. Activity as % TGF-β3 activity; for EC50: concentration required to induce 50% levels of chondrogenesis with TGF-β3 as positive control, read-out: Conc (nM) of 50% TGF-β3 activity
Source text: Representative compounds were screened using primary human mesenchymal stem cells (hMSCs) to determine their ability to induce chondrogenesis (process by which cartilage is developed).
Human Mesenchymal Stem Cell Culture: Primary human mesenchymal stem cells (hMSCs) were purchased from Lonza (Walkersville, Md.) and expanded in Mesenchymal Stem Cell Growth Media (Lonza). Cells between passage 3 and 6 were used for the experiments.
Area of nodules in each well was normalized to the average of 3 DMSO treated wells on the same plate using Excel (Microsoft Inc.). The normalized averages (fold change over DMSO) of 2 or 3 replicate wells for each compound concentration were calculated. Due to solubility limitations of some of the compounds, curve fitting was incomplete leading to inaccurate EC50 determinations.
Using TGF-β3 as a positive control, the concentration of representative compounds required to induce 50% levels of chondrogenesis is reported. In addition, the maximum activity of each compound and the respective dose that each compound reached maximum chondrogenesis activity is reported.

[2] = tested on: Wnt pathway activity (SW480 colon carcinoma cells stably expressing the Sp5-Luc reporter); test: Wnt pathway activity screening assay (Sp5-Luc reporter gene assay); settings: Homo sapiens, SW480, Table 4; SW480 cells stably expressing Sp5-Luc reporter, 10-point dose-response from 10 μM, 36 to 48 hours
CLK3 kinase = CLK3 kinase (Homo sapiens, UniProt P49761); test: CLK3 kinase activity assay (Z-lyte FRET); assay type: biochemical; settings: Z-lyte Ser/Thr 18 peptide, 156 μM ATP, 1 h at room temperature;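 also: kinase activity read as coumarin/fluorescein emission ratio by FRET, unphosphorylated peptide as 0% and phosphorylated peptide as 100% control, values from non-linear regression of dose-response curves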
Chain of CLK3 kinase (P49761 whole entry): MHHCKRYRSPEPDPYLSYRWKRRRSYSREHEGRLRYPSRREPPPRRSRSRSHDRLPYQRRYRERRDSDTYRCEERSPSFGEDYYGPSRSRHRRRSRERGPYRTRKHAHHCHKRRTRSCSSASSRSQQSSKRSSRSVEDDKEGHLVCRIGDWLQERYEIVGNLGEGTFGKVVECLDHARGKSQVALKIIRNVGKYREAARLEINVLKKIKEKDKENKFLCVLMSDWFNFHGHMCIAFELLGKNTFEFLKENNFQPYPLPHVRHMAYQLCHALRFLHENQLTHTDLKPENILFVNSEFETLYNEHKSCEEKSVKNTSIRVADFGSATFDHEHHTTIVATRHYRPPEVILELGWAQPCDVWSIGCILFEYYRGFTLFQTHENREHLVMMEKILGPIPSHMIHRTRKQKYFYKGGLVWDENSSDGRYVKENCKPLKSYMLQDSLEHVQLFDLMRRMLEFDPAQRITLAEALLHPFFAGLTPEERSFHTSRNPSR

Chain of CLK2 kinase (P49760 whole entry): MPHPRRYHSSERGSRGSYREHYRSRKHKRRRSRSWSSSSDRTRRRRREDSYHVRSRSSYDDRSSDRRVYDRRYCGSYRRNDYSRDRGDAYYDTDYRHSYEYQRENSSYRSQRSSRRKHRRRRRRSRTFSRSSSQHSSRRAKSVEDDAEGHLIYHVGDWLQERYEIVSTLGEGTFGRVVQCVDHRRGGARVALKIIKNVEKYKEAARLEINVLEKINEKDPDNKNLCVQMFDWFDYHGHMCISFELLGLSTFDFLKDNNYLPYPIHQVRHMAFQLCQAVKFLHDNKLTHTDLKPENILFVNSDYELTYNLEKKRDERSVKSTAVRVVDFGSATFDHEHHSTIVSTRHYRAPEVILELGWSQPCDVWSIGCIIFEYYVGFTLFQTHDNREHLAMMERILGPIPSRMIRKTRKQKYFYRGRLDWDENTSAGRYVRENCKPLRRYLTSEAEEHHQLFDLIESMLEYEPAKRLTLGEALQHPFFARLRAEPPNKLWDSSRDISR

Row | Compound | EC50 (CLK2 kinase) [nM] | EC50 [2] [nM] | EC50 (CLK3 kinase) [nM] | EC50 [1] [nM] | Emax [1] [%]
1 | COc1cncc(C#Cc2c[nH]nc2C(=O)Nc2ccc(N3CCNCC3)nc2)c1 [compound 29] | 25 | > 10000 |  |  | 74.7
2 | Fc1cccc(-c2cncc3[nH]c(-c4n[nH]cc4C#Cc4cncc(OC5CCNCC5)c4)nc23)c1 [compound 33] | 3 | 4640 | 148 |  | 
3 | Cc1n[nH]c2cc(F)c(-c3cncc(CN4CCCCC4)n3)cc12 [compound 40] | 45 | 2440 | 2380 |  | 
4 | O=C(Nc1cccnc1)c1n[nH]c2ccc(-c3cncc(NC(=O)N4CCOCC4)c3)cc12 [compound 56] | 4 | 1250 | 47 |  | 
5 | COc1cncc(-c2ccc3[nH]nc(-c4nc5c(-c6cccc(F)c6)cncc5[nH]4)c3n2)c1 [compound 149] | 2 |  | 65 | 20.6 | 55.5
6 | COc1cncc(-c2ccc3[nH]nc(-c4nc5c(-c6cccc(F)c6)ccnc5[nH]4)c3n2)c1 [compound 150] | 3 |  | 89 |  | 47
7 | Fc1cccc(-c2cncc3[nH]c(-c4n[nH]c5ccc(-c6cn[nH]c6)nc45)nc23)c1 [compound 154] | 3 | > 10000 |  | 20.6 | 51.8
8 | CN(C)CCOc1cncc(-c2cc3c(-c4cc5c(-c6ccc(F)cc6)nccc5[nH]4)n[nH]c3cn2)c1 [compound 318] | 19 | 3000 |  | 900 | 113
9 | Nc1cncc(-c2cc3c(-c4cc5c(-c6ccccc6F)ccnc5[nH]4)n[nH]c3cn2)c1 [compound 325] | 4 | > 10000 |  |  | 32.4
10 | CC(C)Nc1cncc(-c2cnc3[nH]nc(-c4cc5c(-c6ccccc6F)ccnc5[nH]4)c3c2)c1 [compound 333] | 20 | > 10000 |  | 10 | 81.6
11 | Cc1ccncc1-c1ccc2[nH]nc(-c3cc4c(-c5ccncc5)ccnc4[nH]3)c2n1 [compound 376] | 11 | > 10000 |  | 300 | 56.5
12 | Nc1cncc(-c2cnc3[nH]nc(-c4cc5c(-c6ccncc6)ccnc5[nH]4)c3c2)c1 [compound 380] | 5 | > 10000 |  |  | 11.9
13 | Nc1cncc(-c2cc3c(-c4cc5c(-c6ccncc6)cncc5[nH]4)n[nH]c3cn2)c1 [compound 381] | 3 | > 10000 |  | 10 | 52
14 | O=C(CC1CCNCC1)Nc1cncc(-c2cnc3[nH]nc(-c4cc5c(-c6ccncc6)ccnc5[nH]4)c3c2)c1 [compound 393] | 6 | > 10000 |  |  | 26.7
15 | c1cc(-c2ccnc3[nH]c(-c4n[nH]c5ccc(-c6cncc(CNCC7CCCC7)c6)nc45)cc23)ccn1 [compound 396] | 12 | > 10000 |  | 100 | 67.2
16 | CN(C)c1cncc(-c2cnc3[nH]nc(-c4cc5c(-c6ccncc6)cncc5[nH]4)c3c2)c1 [compound 397] | 3 | > 10000 |  |  | 191
17 | c1cc(-c2ccnc3[nH]c(-c4n[nH]c5ccc(-c6cncc(OCCN7CCCC7)c6)nc45)cc23)ccn1 [compound 404] | 5 | > 10000 |  |  | 39.6
18 | c1cc(-c2ccnc3[nH]c(-c4n[nH]c5ccc(-c6cncnc6)cc45)cc23)ccn1 [compound 405] | 3 | > 10000 |  |  | 17.3
19 | O=C(Nc1cncc(-c2cnc3[nH]nc(-c4cc5cccnc5[nH]4)c3c2)c1)c1ccccc1 [compound 436] | 8 | > 10000 |  |  | 21.8
20 | Cn1cc(-c2cnc3[nH]nc(-c4cc5cccnc5[nH]4)c3c2)cn1 [compound 454] | 3 | > 10000 |  | 300 | 51.7
21 | CN1CCN(c2cccc3[nH]c(-c4n[nH]c5ncc(-c6cncc(CN7CCCCC7)c6)cc45)cc23)CC1 [compound 494] | 12 |  | 973 | 300 | 
22 | CN1CCN(c2ccnc3[nH]c(-c4n[nH]c5ccc(-c6cn[nH]c6)nc45)cc23)CC1 [compound 498] | 3 | > 10000 |  | 300 | 60.1
23 | CN1CCN(c2cc(C(=O)Nc3cc4cc(-c5cnn(C)c5)ccc4cn3)ccn2)CC1 [compound 545] |  |  |  |  | 27.1
24 | CNC(=O)c1ccc(C(=O)Nc2cc3cc(-c4cn(C)nn4)ccc3cn2)cn1 [compound 577] | 3 |  | 56 |  | 
25 | Cn1cncc1-c1ccc2cnc(NC(=O)c3ccnc(N4CC(N)C4)c3)cc2c1 [compound 581] | 2 |  | 11 |  | 
26 | O=C(Cc1ccccc1)Nc1cncc(-c2ccc3[nH]nc(-c4nc5c(-c6ccncc6)ccnc5[nH]4)c3n2)c1 [compound 626] | 7 | > 10000 |  |  | 
27 | COc1cccc(-c2cncc3[nH]c(-c4n[nH]c5ccc(-c6cn[nH]c6)nc45)nc23)c1 [compound 633] | 3 | > 10000 |  |  | 
28 | CN1CC2CCC(C1)N2C(=O)Nc1cc2cc(-c3cnn(C)c3)ccc2cn1 [compound 638] | 1130 | > 10000 |  |  | 
29 | O=C(Nc1cc2cc(-c3cnco3)cnc2cn1)[C@H]1CC[C@H](CO)CC1 [compound 640] | 7430 | > 10000 |  |  | 

The next lines start with results.

Row | EC50 (CLK2 kinase) [nM] | EC50 [2] [nM] | EC50 (CLK3 kinase) [nM] | EC50 [1] [nM] | Compound | Emax [1] [%]
30 | 46 | 409 |  |  | O=C(Nc1ccc(OCCN2CCCC2)nc1)c1n[nH]cc1C#Cc1cccnc1 [compound 28] | 68.8
31 | 1 | 256 | 1420 |  | Cc1n[nH]c2ccc(-c3cncc(NN4CCNCC4)n3)cc12 [compound 41] | 
32 |  | 84.3 |  |  | Cc1n[nH]c2ccc(-c3cncc(NC4CCNC[C@@H]4F)n3)cc12 (stereo partly drawn) [compound 42] | 25.6
33 |  | 627 |  | 100 | Cc1n[nH]c2ccc(-c3cncc(OC4CCNC[C@@H]4F)n3)cc12 (stereo partly drawn) [compound 44] | 44.9
34 |  | 834 |  | 30 | Cc1n[nH]c2ccc(-c3cncc(OC4CCNC[C@H]4F)n3)cc12 (stereo partly drawn) [compound 45] | 54.2
35 |  | 227 |  | 300 | Cc1n[nH]c2ccc(-c3cncc(OC4CCNCC4(F)F)n3)cc12 (stereo not drawn) [compound 47] | 82.1
36 | 1 | 176 | 20 |  | CN(C)C(=O)Nc1cncc(-c2ccc3[nH]nc(C(=O)Nc4cccnc4)c3c2)c1 [compound 54] | 
37 | 1 | 80 | 13 |  | CN1CCN(c2ccc(NC(=O)c3n[nH]c4ccc(-c5cncc(NC(=O)C6CC6)c5)cc34)cn2)CC1 [compound 55] | 
38 | 2 | 1090 | 581 |  | Cc1cc2[nH]nc(C(=O)Nc3ccc(CN4CCCC4)cc3)c2cc1-c1cccnc1 [compound 60] | 
39 | 1 | 37 | 34 |  | CN1CCN(Cc2ccc(NC(=O)c3n[nH]c4ccc(-c5cccnc5)cc34)cn2)CC1 [compound 62] | 
40 | 1 | 68 | 343 |  | O=C(Nc1cnccc1NC(=O)C1CC1)c1n[nH]c2ccc(-c3cccnc3)cc12 [compound 63] | 
41 | 1 | 106 | 21 |  | O=C(Nc1ccnnc1)c1n[nH]c2ccc(-c3cccnc3)cc12 [compound 64] | 
42 | 1 | 330 | 36 |  | CN(C)Cc1cncc(NC(=O)c2n[nH]c3ccc(-c4cncc(CN5CCCC5)c4)cc23)c1 [compound 70] | 
43 | 1 | 65 | 14 |  | CN(C)CCN(C)c1ccc(NC(=O)c2n[nH]c3ccc(-c4cncc(CN5CCCCC5)c4)cc23)cn1 [compound 84] | 
44 | 1 | 49 | 22 |  | O=C(Nc1ccc(N2CCC(O)CC2)nc1)c1n[nH]c2ccc(-c3cncc(CN4CCCCC4)c3)cc12 [compound 91] | 
45 | 5 | 101 | 71 |  | O=C(Nc1ccc(-c2ccccc2)nc1)c1n[nH]c2ccc(-c3cncc(CN4CCCCC4)c3)cc12 [compound 93] | 
46 | 4 | 58 |  | 100 | c1cc(-c2cncc3[nH]c(-c4n[nH]c5ccc(-c6cncc(CNCC7CCCC7)c6)cc45)nc23)cs1 [compound 250] | 167
47 |  | 32 | 67 | 300 | CN(C)Cc1cncc(-c2cnc3[nH]nc(-c4nc5c(-c6ccsc6)cccc5[nH]4)c3c2)c1 [compound 251] | 105
48 |  | 999 | 100 | 30 | CCCC(=O)Nc1cncc(-c2cnc3[nH]nc(-c4cc5c(-c6ccncc6)ccnc5[nH]4)c3c2)c1 [compound 384] | 50.3
